{"source": "patent US20230322822A1", "about": "“ARYL PHOSPHOROUS OXIDE COMPOUNDS AND USE THEREOF” (Chengdu Di'ao Jiuhong Pharmaceutical Factory, priority 2020, published 2023)", "key": {"[1]": {"tested_on": "BaF3 EML-4-ALK-L1196M cells", "assay": "In-vivo pharmacodynamic study, transplanted tumor model of BaF3 EML-4-ALK-L1196M cells in nude mice", "set-up": "species or system BALB/c nude mice", "conditions": "for Effect on tumor growth (in words): compound 2 50 mg/kg, compound 6 60 mg/kg, compound 14 80 mg/kg", "description": "The models used in this test were subcutaneous transplanted tumor models of engineered BaF3 EML-4-ALK-L1196M cells in BALB/c nude mice. The engineered BaF3 cells were cultured in vitro suspension. […] Passages were treated twice a week. When the cell number reached requirement, the cells were collected, counted and inoculated. 0.2 mL (10^6) of cells (added with matrigel, 1:1 by volume) were subcutaneously inoculated in the right back of each mouse, and divided into groups for dosing with 6 mice per group when the mean tumor volume reached 128 mm^3.\nAdministration mode and frequency: oral gavage was carried out with an administration volume of 10 mL/kg, and the model group was administered with the same volume of solvent. The administration was once per day and continuously carried out for 14 days. The dose of compound 2 was 50 mg/kg, the dose of compound 6 was 60 mg/kg, and the dose of compound 14 was 80 mg/kg.\nGeneral conditions such as spirit, activity, food intake and the like of the mice were observed every day, and the weight was measured thrice every week; the short diameter (a) and the long diameter (b) of each mouse tumor were measured thrice a week with a vernier caliper, and the tumor volume was calculated according to the formula (a^2×b)/2. The Relative Tumor Volume (RTV) was calculated from the measured tumor volume, wherein RTV=Vt/V0, wherein V0 was the tumor volume at random grouping (i.e., d0) and Vt was the tumor volume at each measurement (i.e., dn). The relative tumor proliferation rate of the evaluation index of the anti-tumor activity was calculated according to the following formula: relative tumor proliferation rate T/C (%): […]\n(Note: TRTV: treatment group RTV; CRTV: model control group RTV. According to the therapeutic effect evaluation standard in the Technical Guidelines for Non-clinical Research of Cytotoxic Anti-tumor Drugs Issued by National Medical Products Administration of China, the value (T/C %≤40%) was effective)."}, "EGFR-T790M/L858R": {"molecular_target": "EGFR-T790M/L858R (Homo sapiens (Human), UniProt P00533, L858R/T790M)", "sequence (P00533 25-1210 T790M/L858R)": "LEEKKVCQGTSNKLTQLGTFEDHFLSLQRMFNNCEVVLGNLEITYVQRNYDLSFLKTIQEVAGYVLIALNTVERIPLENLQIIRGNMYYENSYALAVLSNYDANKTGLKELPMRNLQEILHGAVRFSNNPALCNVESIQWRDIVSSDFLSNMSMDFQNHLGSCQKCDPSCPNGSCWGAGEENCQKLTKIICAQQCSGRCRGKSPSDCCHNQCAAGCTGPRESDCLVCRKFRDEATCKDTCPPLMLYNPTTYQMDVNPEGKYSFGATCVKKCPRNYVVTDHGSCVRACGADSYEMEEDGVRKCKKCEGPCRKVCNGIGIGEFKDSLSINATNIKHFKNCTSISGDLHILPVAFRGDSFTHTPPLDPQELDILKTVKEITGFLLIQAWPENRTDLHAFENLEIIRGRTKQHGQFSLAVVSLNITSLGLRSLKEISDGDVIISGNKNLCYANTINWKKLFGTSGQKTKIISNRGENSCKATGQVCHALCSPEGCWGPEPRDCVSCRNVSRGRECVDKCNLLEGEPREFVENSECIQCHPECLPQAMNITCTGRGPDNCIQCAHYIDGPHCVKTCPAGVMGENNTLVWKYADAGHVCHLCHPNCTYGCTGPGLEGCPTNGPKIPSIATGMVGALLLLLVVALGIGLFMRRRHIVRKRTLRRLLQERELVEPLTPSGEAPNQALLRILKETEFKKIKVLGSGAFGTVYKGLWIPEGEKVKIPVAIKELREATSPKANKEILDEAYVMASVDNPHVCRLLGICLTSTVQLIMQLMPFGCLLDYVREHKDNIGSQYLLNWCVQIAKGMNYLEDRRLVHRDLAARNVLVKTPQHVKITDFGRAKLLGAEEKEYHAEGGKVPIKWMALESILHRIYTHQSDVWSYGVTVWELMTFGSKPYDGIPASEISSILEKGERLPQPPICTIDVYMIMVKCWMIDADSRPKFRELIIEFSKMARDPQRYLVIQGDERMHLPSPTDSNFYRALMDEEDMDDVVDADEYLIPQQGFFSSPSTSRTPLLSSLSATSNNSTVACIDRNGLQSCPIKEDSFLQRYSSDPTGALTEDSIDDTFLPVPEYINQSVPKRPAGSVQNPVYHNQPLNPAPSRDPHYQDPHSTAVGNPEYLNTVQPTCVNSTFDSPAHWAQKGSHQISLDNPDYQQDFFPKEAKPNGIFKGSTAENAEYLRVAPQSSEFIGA", "assay": "Enzymatic activity test (ADP-Glo) EGFR-T790M/L858R", "assay_type": "biochemical", "conditions": "kinase", "description": "(§1) • 1. […] Test information:\n(§2) To assess the effect of compounds on the activity of wild-type and mutant EGFR kinases, kinase activity was tested by measuring ATP consumption in an enzymatic reaction using an ADP-Glo (Promega Corporation) kit. Samples to be tested were dissolved in DMSO and diluted in a gradient. In a microplate, an EGFR kinase, a reaction buffer (containing Tris-HCl with a pH of 7.5, MgCl2, DTT and BSA), a kinase substrate Poly(Glu4, Tyr1) and a sample (a total volume of 20 μL per well) were added per well, while a blank control (no enzyme and sample) and a negative control (no sample) were set up; incubated for 15 minutes at 23° C.; added with 5 μL of ATP, and reacted at 23° C. for 60 minutes; added with ADP-Glo Reagent, and continuously reacted for 40 minutes at room temperature to inactivate the redundant ATP; then, added with a Kinase Detection Reagent, and reacted at room temperature for 30 minutes, then the chemiluminescence intensity L of each well was measured. […] IC50 values were calculated according to the above calculation using 4Parameter Logistic Model in XLfit software. • 3."}, "EML4-ALK kinase": {"molecular_target": "EML4-ALK kinase (Homo sapiens (Human), UniProt Q9HC35+Q9UM73)", "sequence (Q9UM73 other isoform, or with tags, fused parts or gaps)": "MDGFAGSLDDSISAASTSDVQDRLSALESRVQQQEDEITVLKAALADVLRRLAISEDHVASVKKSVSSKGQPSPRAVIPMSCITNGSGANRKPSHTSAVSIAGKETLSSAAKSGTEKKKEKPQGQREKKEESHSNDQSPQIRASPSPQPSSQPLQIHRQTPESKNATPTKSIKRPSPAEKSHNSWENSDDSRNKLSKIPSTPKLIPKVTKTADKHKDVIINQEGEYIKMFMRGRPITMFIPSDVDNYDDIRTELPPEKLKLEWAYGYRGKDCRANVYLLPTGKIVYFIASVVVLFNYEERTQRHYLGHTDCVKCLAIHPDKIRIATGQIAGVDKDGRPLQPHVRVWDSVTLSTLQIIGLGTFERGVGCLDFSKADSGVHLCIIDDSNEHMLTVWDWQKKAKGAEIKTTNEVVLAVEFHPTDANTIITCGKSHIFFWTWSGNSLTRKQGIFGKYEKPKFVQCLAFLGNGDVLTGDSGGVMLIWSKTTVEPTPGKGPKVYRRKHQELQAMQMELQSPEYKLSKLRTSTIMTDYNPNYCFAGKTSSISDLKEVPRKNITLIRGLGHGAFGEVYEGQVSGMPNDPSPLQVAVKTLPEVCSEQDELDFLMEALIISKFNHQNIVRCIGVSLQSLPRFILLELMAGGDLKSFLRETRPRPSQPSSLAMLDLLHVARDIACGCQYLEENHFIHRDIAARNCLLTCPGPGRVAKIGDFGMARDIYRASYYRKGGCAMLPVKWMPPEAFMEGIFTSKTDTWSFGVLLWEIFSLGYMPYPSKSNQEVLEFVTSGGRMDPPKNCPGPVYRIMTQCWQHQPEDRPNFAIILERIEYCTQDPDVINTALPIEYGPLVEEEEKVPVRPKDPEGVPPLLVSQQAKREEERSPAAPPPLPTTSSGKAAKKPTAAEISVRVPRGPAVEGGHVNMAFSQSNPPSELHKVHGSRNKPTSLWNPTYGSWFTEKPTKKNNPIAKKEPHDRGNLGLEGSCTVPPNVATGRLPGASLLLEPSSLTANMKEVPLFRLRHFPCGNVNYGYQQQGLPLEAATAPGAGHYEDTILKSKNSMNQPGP", "assay": "Enzymatic activity test 2 (ADP-Glo) EML4-ALK kinase", "assay_type": "biochemical", "description": "as §1\nas §2, with “EML4-ALK” for “wild-type and mutant EGFR”, “EML4-ALK” for “EGFR”, “IGF1” for “Poly(Glu4, Tyr1)”, “up;” for “up; incubated for 15 minutes at 23° C.;”, “kinase detection reagent,” for “Kinase Detection Reagent,”"}, "EGFR-C797S/T790M/L858R": {"molecular_target": "EGFR-C797S/T790M/L858R (Homo sapiens (Human), UniProt P00533, C797S/L858R/T790M)", "sequence (P00533 25-1210 T790M/C797S/L858R)": "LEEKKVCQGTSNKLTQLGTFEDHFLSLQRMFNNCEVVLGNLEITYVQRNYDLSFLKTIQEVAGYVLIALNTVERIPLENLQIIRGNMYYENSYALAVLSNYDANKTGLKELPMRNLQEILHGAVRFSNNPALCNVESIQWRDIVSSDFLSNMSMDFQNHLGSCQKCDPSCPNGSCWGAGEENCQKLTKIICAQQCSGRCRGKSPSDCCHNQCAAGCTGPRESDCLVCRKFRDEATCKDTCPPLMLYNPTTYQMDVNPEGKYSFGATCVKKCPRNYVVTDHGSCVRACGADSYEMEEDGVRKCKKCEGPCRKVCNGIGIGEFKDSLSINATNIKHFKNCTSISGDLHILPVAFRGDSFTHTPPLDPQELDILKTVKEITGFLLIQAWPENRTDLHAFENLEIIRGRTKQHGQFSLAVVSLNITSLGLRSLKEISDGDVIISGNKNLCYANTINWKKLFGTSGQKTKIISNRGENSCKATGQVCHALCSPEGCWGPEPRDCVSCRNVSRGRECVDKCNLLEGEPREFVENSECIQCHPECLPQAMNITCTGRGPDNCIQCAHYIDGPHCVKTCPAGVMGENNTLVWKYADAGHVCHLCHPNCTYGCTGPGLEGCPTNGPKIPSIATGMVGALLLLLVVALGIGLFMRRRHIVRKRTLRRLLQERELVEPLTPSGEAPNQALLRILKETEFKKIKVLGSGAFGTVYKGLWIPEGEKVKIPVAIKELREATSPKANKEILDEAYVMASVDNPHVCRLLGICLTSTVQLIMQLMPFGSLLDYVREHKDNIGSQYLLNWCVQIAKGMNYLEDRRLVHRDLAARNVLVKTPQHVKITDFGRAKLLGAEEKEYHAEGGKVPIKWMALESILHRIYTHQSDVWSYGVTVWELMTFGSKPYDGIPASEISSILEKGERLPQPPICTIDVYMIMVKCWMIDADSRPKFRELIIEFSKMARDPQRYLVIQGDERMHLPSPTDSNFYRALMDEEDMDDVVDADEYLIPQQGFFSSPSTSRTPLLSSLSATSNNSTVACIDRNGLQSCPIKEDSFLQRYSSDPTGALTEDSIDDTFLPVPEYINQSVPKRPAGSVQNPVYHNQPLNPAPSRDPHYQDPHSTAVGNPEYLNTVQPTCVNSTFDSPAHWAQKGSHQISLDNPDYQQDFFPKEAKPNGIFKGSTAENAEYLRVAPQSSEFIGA", "assay": "Enzymatic activity test (ADP-Glo) EGFR-C797S/T790M/L858R", "assay_type": "biochemical", "conditions": "kinase", "in_short": "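Each EGFR mutant was preincubated with compound, Poly(Glu4,Tyr1) and Tris-HCl pH 7.5 buffer (MgCl2, DTT, BSA) for 15 min at 23 °C. ATP was then added for 60 min at 23 °C. ADP-Glo luminescence gave ATP consumption, and IC50 came from a 4-parameter logistic fit.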"}, "[2]": {"assay": "Single administration toxicity test, orally intragastric administration to SD rats", "assay_type": "in vivo", "conditions": "for Mortality Female: 5 female rats; for Mortality Female / Mortality Male / Mortality/total number of animals: day 15; for Mortality Male: 5 male rats", "description": "8-week-old SD rats, 10 per group, male and female half, were purchased from Beijing SiPeiFu. The rats were tested after 3 days of acclimatization in this laboratory. The oral administration was performed by intragastric administration with an administration volume of 10 mL/kg. The rats were fasted and not forbidden to drink water for 17 hours before administration. The rats in the control group were given an equal volume of solvent via oral gavage. The feeding was resumed about 2 hours after the end of the administration.\nObservations were made twice daily after the administration. The day of first administration was defined as day 1 of the test. The test was carried out for 14 consecutive days, and ended in day 15."}, "[3]": {"conditions": "80 mg/kg oral gavage once per day"}, "[4]": {"conditions": "50 mg/kg oral gavage once per day"}, "[5]": {"conditions": "60 mg/kg oral gavage once per day"}}, "data": [{"compound": "COc1cc(N2CCC(N3CCN(C)CC3)CC2)c(Cl)cc1Nc1ncc(Br)c(Nc2ccc(C)cc2P(C)(C)=O)n1", "note": "[Compound 14]", "values": [{"measurement": "Tumor volume Day 0", "setting": "[1]; [3]", "result": 128, "unit": "mm^3"}, {"measurement": "Relative tumor proliferation rate T/C Day 2", "setting": "[1]; [3]", "result": 35.71, "unit": "%"}, {"measurement": "Tumor volume Day 2", "setting": "[1]; [3]", "result": 84, "unit": "mm^3"}, {"measurement": "Relative tumor proliferation rate T/C Day 5", "setting": "[1]; [3]", "result": 11.26, "unit": "%"}, {"measurement": "Tumor volume Day 5", "setting": "[1]; [3]", "result": 55, "unit": "mm^3"}, {"measurement": "Relative tumor proliferation rate T/C Day 7", "setting": "[1]; [3]", "result": 3.99, "unit": "%"}, {"measurement": "Tumor volume Day 7", "setting": "[1]; [3]", "result": 37, "unit": "mm^3"}, {"measurement": "Relative tumor proliferation rate T/C Day 9", "setting": "[1]; [3]", "result": 3.95, "unit": "%"}, {"measurement": "Tumor volume Day 9", "setting": "[1]; [3]", "result": 58, "unit": "mm^3"}, {"measurement": "Relative tumor proliferation rate T/C Day 12", "setting": "[1]; [3]", "result": 5.24, "unit": "%"}, {"measurement": "Tumor volume Day 12", "setting": "[1]; [3]", "result": 101, "unit": "mm^3"}, {"measurement": "Relative tumor proliferation rate T/C Day 14", "setting": "[1]; [3]", "result": 6.34, "unit": "%"}, {"measurement": "Tumor volume Day 14", "setting": "[1]; [3]", "result": 132, "unit": "mm^3"}, {"measurement": "Effect on tumor growth (in words)", "setting": "[1]", "result": "obviously inhibit the tumor growth"}, {"measurement": "IC50", "setting": "EGFR-T790M/L858R", "result": 16.6, "unit": "nM"}, {"measurement": "IC50", "setting": "EML4-ALK kinase", "result": 12.9, "unit": "nM"}, {"measurement": "IC50", "setting": "EGFR-C797S/T790M/L858R", "result": 10.1, "unit": "nM"}]}, {"compound": "COc1cc(N2CCC(N3CCN(C)CC3)CC2)c(C)cc1Nc1ncc(Br)c(Nc2ccc(C)cc2P(C)(C)=O)n1", "note": "[Compound 2]", "values": [{"measurement": "Mortality Female", "setting": "[2]; 25 mg/kg single dose", "result": 0}, {"measurement": "Mortality Male", "setting": "[2]; 25 mg/kg single dose", "result": 0}, {"measurement": "Mortality/total number of animals", "setting": "[2]; 25 mg/kg single dose", "result": "0/10"}, {"measurement": "Mortality Female", "setting": "[2]; 75 mg/kg single dose", "result": 0}, {"measurement": "Mortality Male", "setting": "[2]; 75 mg/kg single dose", "result": 0}, {"measurement": "Mortality/total number of animals", "setting": "[2]; 75 mg/kg single dose", "result": "0/10"}, {"measurement": "Mortality Female", "setting": "[2]; 100 mg/kg single dose", "result": 0}, {"measurement": "Mortality Male", "setting": "[2]; 100 mg/kg single dose", "result": 0}, {"measurement": "Mortality/total number of animals", "setting": "[2]; 100 mg/kg single dose", "result": "0/10"}, {"measurement": "Mortality Female", "setting": "[2]; 125 mg/kg single dose", "result": 0}, {"measurement": "Mortality Male", "setting": "[2]; 125 mg/kg single dose", "result": 0}, {"measurement": "Mortality/total number of animals", "setting": "[2]; 125 mg/kg single dose", "result": "0/10"}, {"measurement": "Mortality Female", "setting": "[2]; 150 mg/kg single dose", "result": 0}, {"measurement": "Mortality Male", "setting": "[2]; 150 mg/kg single dose", "result": 1}, {"measurement": "Mortality/total number of animals", "setting": "[2]; 150 mg/kg single dose", "result": "1/10"}, {"measurement": "Mortality Female", "setting": "[2]; 200 mg/kg single dose", "result": 0}, {"measurement": "Mortality Male", "setting": "[2]; 200 mg/kg single dose", "result": 0}, {"measurement": "Mortality/total number of animals", "setting": "[2]; 200 mg/kg single dose", "result": "0/10"}, {"measurement": "MTD at 14 days", "setting": "[2]; both sexes, rat, in vivo, po, SD rats, single orally intragastric administration, read-out: Maximum Tolerated Dose (MTD)", "result": 125, "unit": "mg/kg"}, {"measurement": "Tumor volume Day 0", "setting": "[1]; [4]", "result": 129, "unit": "mm^3"}, {"measurement": "Relative tumor proliferation rate T/C Day 2", "setting": "[1]; [4]", "result": 24.19, "unit": "%"}, {"measurement": "Tumor volume Day 2", "setting": "[1]; [4]", "result": 55, "unit": "mm^3"}, {"measurement": "Relative tumor proliferation rate T/C Day 5", "setting": "[1]; [4]", "result": 2.61, "unit": "%"}, {"measurement": "Tumor volume Day 5", "setting": "[1]; [4]", "result": 13, "unit": "mm^3"}, {"measurement": "Relative tumor proliferation rate T/C Day 7", "setting": "[1]; [4]", "result": 0.74, "unit": "%"}, {"measurement": "Tumor volume Day 7", "setting": "[1]; [4]", "result": 7, "unit": "mm^3"}, {"measurement": "Relative tumor proliferation rate T/C Day 9", "setting": "[1]; [4]", "result": 0.68, "unit": "%"}, {"measurement": "Tumor volume Day 9", "setting": "[1]; [4]", "result": 10, "unit": "mm^3"}, {"measurement": "Relative tumor proliferation rate T/C Day 12", "setting": "[1]; [4]", "result": 0.89, "unit": "%"}, {"measurement": "Tumor volume Day 12", "setting": "[1]; [4]", "result": 17, "unit": "mm^3"}, {"measurement": "Relative tumor proliferation rate T/C Day 14", "setting": "[1]; [4]", "result": 0.91, "unit": "%"}, {"measurement": "Tumor volume Day 14", "setting": "[1]; [4]", "result": 20, "unit": "mm^3"}]}, {"compound": "COc1cc(N2CCC(N(C)C)CC2)c(C)cc1Nc1ncc(Br)c(Nc2ccc(C)cc2P(C)(C)=O)n1", "note": "[Compound 6]", "values": [{"measurement": "Tumor volume Day 0", "setting": "[1]; [5]", "result": 128, "unit": "mm^3"}, {"measurement": "Relative tumor proliferation rate T/C Day 2", "setting": "[1]; [5]", "result": 16.51, "unit": "%"}, {"measurement": "Tumor volume Day 2", "setting": "[1]; [5]", "result": 37, "unit": "mm^3"}, {"measurement": "Relative tumor proliferation rate T/C Day 5", "setting": "[1]; [5]", "result": 5.28, "unit": "%"}, {"measurement": "Tumor volume Day 5", "setting": "[1]; [5]", "result": 25, "unit": "mm^3"}, {"measurement": "Relative tumor proliferation rate T/C Day 7", "setting": "[1]; [5]", "result": 3.01, "unit": "%"}, {"measurement": "Tumor volume Day 7", "setting": "[1]; [5]", "result": 25, "unit": "mm^3"}, {"measurement": "Relative tumor proliferation rate T/C Day 9", "setting": "[1]; [5]", "result": 1.59, "unit": "%"}, {"measurement": "Tumor volume Day 9", "setting": "[1]; [5]", "result": 21, "unit": "mm^3"}, {"measurement": "Relative tumor proliferation rate T/C Day 12", "setting": "[1]; [5]", "result": 1.88, "unit": "%"}, {"measurement": "Tumor volume Day 12", "setting": "[1]; [5]", "result": 33, "unit": "mm^3"}, {"measurement": "Relative tumor proliferation rate T/C Day 14", "setting": "[1]; [5]", "result": 1.99, "unit": "%"}, {"measurement": "Tumor volume Day 14", "setting": "[1]; [5]", "result": 39, "unit": "mm^3"}, {"measurement": "Effect on tumor growth (in words)", "setting": "[1]", "result": "obviously inhibit the tumor growth"}, {"measurement": "IC50", "setting": "EGFR-T790M/L858R", "result": 28.8, "unit": "nM"}, {"measurement": "IC50", "setting": "EML4-ALK kinase", "result": 14.6, "unit": "nM"}, {"measurement": "IC50", "setting": "EGFR-C797S/T790M/L858R", "result": 16.8, "unit": "nM"}]}]}
